Experimental findings from patent publication EP2559433A1, “Composition for lowering blood lipid and elevating high-density lipoprotein and method for manufacturing the same” (Sunway Biotech Co., Ltd., priority 2011, dated 2013) are described below.

Each structure is given as a SMILES string.

Assay [1] relates to hamsters feed with high cholesterol diet. Kind of assay: Cholesterol parameters in blood of hamsters fed a high cholesterol diet. On the set-up: TC reducing rate / TG reducing rate / LDL-C reducing rate / LDL/HDL reducing rate / MDA reducing rate: concentration or dose not given beside the values. The following applies: for LDL/HDL: ratio of LDL-C to HDL-C; for LDL/HDL / HDL-C content / LDL-C content / MDA content / TC content / TG content: high cholesterol diet hamsters fed for 8 weeks; for HDL-C increasing rate / LDL-C reducing rate / LDL/HDL reducing rate / MDA reducing rate / TC reducing rate / TG reducing rate: relative to HC (high cholesterol diet group), 8 weeks; for HDL-C content: serum high density lipoprotein cholesterol; for LDL-C content: serum low density lipoprotein cholesterol; for MDA content: serum malondialdehyde; for TC content: serum total cholesterol, mean ± spread; for TG content: serum triglyceride. Format: in vivo. As to the method: Hereinafter, the composition of the first preferred embodiment is called as monascin (MS for abbreviation), and the amount of the monascin taken by an experimental animal is equivalent to 9.82 mg taken by an adult human per day; the composition of the second preferred embodiment is called as ankaflavin (AF for abbreviation), and the amount of the ankaflavin taken by an experimental animal is equivalent to 1.43 mg taken by an adult human per day; the composition of the third preferred embodiment is called as monascin + ankaflavin (MS+AF for abbreviation), and the amount of the monascin and ankaflavin taken by an experimental animal are equivalent to 9.82 mg and 1.43 mg taken by an adult human per day respectively. Additionally, a composition containing monacolin K is utilized as a comparison group, which is called as MK for abbreviation.
(§1) Firstly, the experiment utilizes hamsters feed with high cholesterol diet as experimental animals, which are then feed with MS, AF, MS+AF, and MK for 8 weeks, and then each of cholesterol parameters in blood of the hamsters are analyzed. The cholesterol parameters include total cholesterol (TC), triglyceride (TG), high density lipoprotein cholesterol (HDL-C), low density lipoprotein cholesterol (LDL-C), ratio of LDL-C to HDL-C, and malondialdehyde (MDA). The amount of the MK taken by the experimental animals is equivalent to 2.89 mg taken by an adult human per day. Additionally, a normal diet group is referred to as NOR, and a high cholesterol diet group is referred to as HC.
Referring to the following table 1 and table 2, wherein the table 1 illustrates the results of the above-mentioned animal experiments, and the table 2 illustrates the reducing rate or the increasing rate of MS, AF, MS+AF, and MK relative to HC. […] In the results of the reducing rate of LDL-C, although the group of MS has the effect almost the same as MK, the groups of AF and MS+AF have the effect of lowering the amount of LDL-C better than the MK group. […]

Assay [2] relates to cholesterol biosynthesis. Kind of assay: Cell experiment on inhibition of cholesterol biosynthesis. It is filed as cell-based. Particulars: Fig. 12; cells treated at the same concentration (100 ppb). From the text: In order to compare the inhibitory effect of cholesterol biosynthesis by monascin, ankaflavin and monacolin K, the present invention applies a cell experiment and treats cells with monascin, ankaflavin and monacolin K with the same concentration (100 ppb) for researching the influence of these ingredients on the cholesterol biosynthesis. Referring to Fig. 12, which is a comparative diagram for the effect of the inhibition of cholesterol by monascin, ankaflavin and monacolin K with the same concentration.

For assay [3], the system named is lipid plaque on arterial vascular walls in the thoracic cavity. The experiment in a line: Lipid plaque staining in arteries. It is filed as in vivo, hamsters. The following applies: Fig. 11; high cholesterol diet for eight weeks; MK 2.89 mg, MS 9.82 mg, AF 1.43 mg adult human equivalent per day. On the procedure:
as §1
Another important indicator for evaluating atherosclerosis is the analysis of lipid plaque staining in arteries, and the results of lipid plaque staining can indicate that whether lipid plaque deposits on arterial vascular walls. Large amounts of lipid with over-oxidation can cause bulk deposition of foam cells, and then the vascular walls lose elasticity and large amounts of lipid plaque are deposited, so as to lead to atherosclerosis. Referring to Fig. 11, which is a diagram of quantitative results of the lipid plaque staining experiment.

With `C/C=C/C1=CC2=C(CO1)C(=O)[C@]1(C)OC(=O)[C@H](C(=O)CCCCCCC)[C@H]1C2` [AF, ankaflavin], in assay [1], the LDL/HDL turned out to be 0.355 ±0.049, the HDL-C increasing rate is listed as 17.3%, the LDL-C reducing rate stood at 42.3% and the LDL/HDL reducing rate is recorded as 37.6%. Besides, in assay [1], the MDA reducing rate was 59.6%, the TC reducing rate is 28.6%, the TG reducing rate worked out at 58.2% and the HDL-C content came to 118.6 ± 8.09 mg/dL. Moreover, in assay [1], the LDL-C content came to 39.4 ± 5.80 mg/dL, the MDA content came out at 9.07 ± 1.45 mg/dL, the TC content came to 168.9 ± 11.5 mg/dL and the TG content was 94.5 ± 18.0 mg/dL.
For the compound `CC[C@H](C)C(=O)O[C@H]1C[C@@H](C)C=C2C=C[C@H](C)[C@H](CC[C@@H]3C[C@@H](O)CC(=O)O3)[C@H]21` [MK, monacolin K, reference compound], in assay [1], the LDL/HDL stood at 0.489 ±0.050, the HDL-C increasing rate was -1.2%, the LDL-C reducing rate came to 34.1% and the LDL/HDL reducing rate is given as 14.1%. In assay [1], this compound displayed an MDA reducing rate of 16.5%, a TC reducing rate of 19.6%, a TG reducing rate of 42.1% and an HDL-C content of 96.9 ± 8.84 mg/dL. In addition, in assay [1], the LDL-C content is 45.0 ± 6.97 mg/dL, the MDA content was determined as 10.37 ± 1.73 mg/dL, the TC content came to 190.3 ± 25.1 mg/dL and the TG content is 131.1 ± 36.7 mg/dL. In addition, the “effect of inhibiting the biosynthesis of cholesterol” value in assay [2] is on record as “has the weakest effect”. Also, in assay [3], the “amount of lipid plaque” value is given as “can lower the amount of lipid plaque”.
As to `C/C=C/C1=CC2=C(CO1)C(=O)[C@]1(C)OC(=O)[C@H](C(=O)CCCCC)[C@H]1C2` [MS, monascin], in assay [1], the LDL/HDL came out at 0.416 ±0.022, the HDL-C increasing rate came to 14.1%, the LDL-C reducing rate is listed as 33.9% and the LDL/HDL reducing rate turned out to be 26.9%. In assay [1], the MDA reducing rate was determined as 40.1%, the TC reducing rate amounted to 29.9%, the TG reducing rate is given as 63.4% and the HDL-C content was 114.2 ± 9.36 mg/dL. In addition, in assay [1], the LDL-C content came out at 45.1 ± 3.36 mg/dL, the MDA content came out at 8.62 ± 1.45 mg/dL, the TC content came to 165.8 ± 10.6 mg/dL and the TG content was 82.8 ± 9.0 mg/dL.
